Laboratory results published in paper PMC8174188 (Neuron, 2021).

Columns and labels:
[1] = target: T1, dSARM1^ARM (Drosophila SARM1 ARM domain) (Drosophila melanogaster, UniProt Q6IDD9); assay: ITC; format: binding
T1 sequence (Q6IDD9 307-678): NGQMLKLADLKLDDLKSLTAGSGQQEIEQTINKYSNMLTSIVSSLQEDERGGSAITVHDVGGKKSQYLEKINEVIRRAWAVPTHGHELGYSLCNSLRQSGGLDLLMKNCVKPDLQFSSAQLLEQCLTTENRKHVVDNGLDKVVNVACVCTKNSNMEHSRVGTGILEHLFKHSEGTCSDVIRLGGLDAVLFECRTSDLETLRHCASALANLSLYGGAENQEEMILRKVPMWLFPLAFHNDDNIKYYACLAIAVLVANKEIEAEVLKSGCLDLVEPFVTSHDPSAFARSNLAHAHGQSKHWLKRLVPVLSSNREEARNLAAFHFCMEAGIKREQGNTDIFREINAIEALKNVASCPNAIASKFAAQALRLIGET

[2] = target: dSARM1^ARM (Drosophila SARM1 ARM domain) (Drosophila melanogaster, UniProt Q6IDD9, R437A); assay: ITC; format: binding
dSARM1^ARM (Drosophila SARM1 ARM domain) (Drosophila melanogaster, UniProt Q6IDD9, R437A), sequence (Q6IDD9 307-678 R437A): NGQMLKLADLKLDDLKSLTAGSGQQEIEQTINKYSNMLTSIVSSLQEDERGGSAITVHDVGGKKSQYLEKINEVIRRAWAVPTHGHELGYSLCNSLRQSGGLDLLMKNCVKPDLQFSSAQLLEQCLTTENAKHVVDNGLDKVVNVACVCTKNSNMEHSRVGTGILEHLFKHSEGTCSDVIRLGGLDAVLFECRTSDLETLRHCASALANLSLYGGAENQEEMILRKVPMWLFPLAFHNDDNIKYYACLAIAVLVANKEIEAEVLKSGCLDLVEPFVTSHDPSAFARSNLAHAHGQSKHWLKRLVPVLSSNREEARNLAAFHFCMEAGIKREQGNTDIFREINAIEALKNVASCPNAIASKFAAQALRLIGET

[3] = target: the molecule itself; assay: cryo-EM structure

In the case of NC(=O)c1ccc[n+]([C@@H]2O[C@H](COP(=O)([O-])OP(=O)(O)OC[C@H]3O[C@@H](n4cnc5c(N)ncnc54)[C@H](O)[C@@H]3O)[C@@H](O)[C@H]2O)c1 [NAD^+], the Kd [1] is reported as 54.2 ± 6.4 µM.

NC(=O)c1ccc[n+]([C@@H]2O[C@H](COP(=O)([O-])O)[C@@H](O)[C@H]2O)c1 [NMN] gave a Kd [2] of 12.45 ± 0.03 µM.

B1: human SARM1 lacking the mitochondrial localisation signal (residues 28-724) (enzyme, UniProt Q6SZW1-1 28-724, looked up)
chain: LAVPGPDGGGGTGPWWAAGGRGPREVSPGAGTEVQDALERALPELQQALSALKQAGGARAVGAGLAEVFQLVEEAWLLPAVGREVAQGLCDAIRLDGGLDLLLRLLQAPELETRVQAARLLEQILVAENRDRVARIGLGVILNLAKEREPVELARSVAGILEHMFKHSEETCQRLVAAGGLDAVLYWCRRTDPALLRHCALALGNCALHGGQAVQRRMVEKRAAEWLFPLAFSKEDELLRLHACLAVAVLATNKEVEREVERSGTLALVEPLVASLDPGRFARCLVDASDTSQGRGPDDLQRLVPLLDSNRLEAQCIGAFYLCAEAAIKSLQGKTKVFSDIGAIQSLKRLVSYSTNGTKSALAKRALRLLGEEVPRPILPSVPSWKEAEVQTWLQQIGFSKYCESFREQQVDGDLLLRLTEEELQTDLGMKSGITRKRFFRELTELKTFANYSTCDRSNLADWLGSLDPRFRQYTYGLVSCGLDRSLLHRVSEQQLLEDCGIHLGVHRARILTAAREMLHSPLPCTGGKPSGDTPDVFISYRRNSGSQLASLLKVHLQLHGFSVFIDVEKLEAGKFEDKLIQSVMGARNFVLVLSPGALDKCMQDHDCKDWVHKEIVTALSCGKNIVPIIDGFEWPEPQVLPEDMQAVLTFNGIKWSHEYQEATIEKIIRFLQGRSSRDSSAGSDTSLEGAAPMGPT
With B1 the “stoichiometry N” value [3] was 8.
